Consider ten molecules from patent EP0887077A1, “Use of azulene derivatives as metalloprotease inhibitors” (BOEHRINGER MANNHEIM GMBH, priority 1997, dated 1998).

The structures appear in SMILES notation.

This assay has as its system TNF-α. In words: Inhibition of LPS-induced TNFα release from peripheral human leukocytes, TNFα-specific enzyme immunoassay of culture supernatant. In kind it is cell-based. Conditions: Leukocyte, Periphere humane Leukozyten, LPS über 22 Std., TNFα im Kulturüberstand. An excerpt:
Periphere humane Leukozyten werden mit LPS über 22 Std. inkubiert. Der Kultutüberstand wird mit einem TNFα spezifischen Enzym-Immuno-Assay untersucht. Durch Vergleich der für die Messproben erhaltenen TNFα-Konzentrationen mit den ungehemmten Proben wird die prozentuale Hemmung für die einzelne Probe berechnet. Aus der Konzentrationsabhängigkeit der Hemmwerte werden rechnerisch die IC50-Werte bestimmt. […]
Die IC50-Werte der oben genannten Substanzen, die Gegenstand dieses Patentes sind, gegen TNF-α finden sich in der folgenden Tabelle;

Molecule `CCOC(=O)Cc1ccc2c(C(=O)OCC)c(N)c(C(=O)OCC)c-2cc1` [Verbindung 1, 2-Amino-6-ethoxycarbonylmethyl-azulen-1,3-dicarbonsäurediethylester] showed an IC50 of 200 nM.
With `CCOC(=O)c1c2ccc(Br)ccc-2c(C(=O)OCC)c1NC(C)=O` [Verbindung 5, 2-Acetylamino-6-bromo-azulen-1,3-dicarbonsäurediethylester] the figure was 1100 nM; with `CCOC(=O)c1c2ccc(C(C(=O)OCC)C(=O)OCC)ccc-2c(C(=O)OCC)c1N(C(C)=O)C(C)=O` [Verbindung 3, 6-(Bis-ethoxycarbonylmethyl)-2-diacetylamino-azulen-1,3-dicarbonsäurediethylester], 180 nM.
The value for `Cc1cc(C=CC=O)c2c(C)ccc(C(C)C)cc1-2` [Verbindung 10, 3-(5-isopropyl-3,8-dimethyl-azulen-1-yl)-propenal] was 10700 nM; that for `CCOC(=O)c1c2ccc(S)ccc-2c(C(=O)OCC)c1N` [Verbindung 8, 2-Amino-6-mercapto-azulen-1,3-dicarbonsäurediethylester] was 26000 nM; that for `CCOC(=O)c1c2ccc(Br)ccc-2c(C(=O)OCC)c1N(C(C)=O)C(C)=O` [Verbindung 4, 6-Bromo-2-diacetylamino-azulen-1,3-dicarbonsäurediethylester] was 1300 nM.
The value for `CCOC(=O)c1c2cccccc-2c(C(=O)OCC)c1N` [Verbindung 7, 2-Amino-azulen-1,3-dicarbonsäurediethylester] was 25400 nM.
Regarding `CCOC(=O)Cc1ccc2c(C(=O)OCC)c(N(C(C)=O)C(C)=O)c(C(=O)OCC)c-2cc1` [Verbindung 2, 2-Diacetylamino-6-ethoxycarbonylmethyl-azulen-1,3-dicarbonsäurediethylester], the half-inhibitory concentration (IC50) is 50 nM.
`CCOC(=O)C(Cc1ccc2c(C(=O)OCC)c(Cl)c(C(=O)OCC)c-2cc1)=NO` [Verbindung 9, 2-Chloro-6-(2-ethoxycarbonyl-2-hydroxyimino-ethyl)-azulen-1,3-dicarbonsäurediethylester]: the IC50 is 2700 nM.
With `CCOC(=O)Cc1ccc2c(C(=O)OCC)c(OCC)c(C(=O)OCC)c-2cc1` [Verbindung 6, 2-Ethoxy-6-ethoxycarbonylmethyl-azulen-1,3-dicarbonsäurediethylester], the half-maximal inhibitory concentration (IC50) came out at 11900 nM.

In general, IC50 refers to the concentration at which inhibition is half-maximal. A high value points to a need for much substance.
